Laboratory results published in the supplement of paper PMC10307832.

Experiments:
Experiment in all cases: relative viability (nuclei count vs DMSO), 5 days (fraction); higher = more cells survive
[1] = compound: O=C(C[C@H]1NCCC[C@@H]1O)Cn1cnc2cc(Br)c(Cl)cc2c1=O (racemic) [Halofuginone] + Cc1cc(Nc2cc(N3CCN(C)CC3)nc(Sc3ccc(NC(=O)C4CC4)cc3)n2)n[nH]1 [Tozasertib] (partner 0.1 µM)
Outline: (§1)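 A single step with final 0.05% Triton X-100, 1% formaldehyde and 1 ug/ml Hoechst fixed the cells and stained nuclei 5 days after treatment. Lung cancer cell lines in 1536-well plates had been treated by pin tool the day after seeding with one drug alone or a fixed anchor-drug dose plus five library-drug doses (not always all listed) in √10 steps, and nuclei were counted on 4× images. Relative viability is the ratio of nuclei in treated wells to nuclei in vehicle wells, taken as the median of duplicate plates.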

[2] = compound: O=C(C[C@H]1NCCC[C@@H]1O)Cn1cnc2cc(Br)c(Cl)cc2c1=O (racemic) [Halofuginone] + N=C(N)NC(=N)NCCc1ccccc1 [Phenformin] (partner 250 µM)
Outline: as §1

[3] = compound: O=C(C[C@H]1NCCC[C@@H]1O)Cn1cnc2cc(Br)c(Cl)cc2c1=O (racemic) [Halofuginone] + CS(=O)(=O)N1CCN(Cc2cc3nc(-c4cccc5[nH]ncc45)nc(N4CCOCC4)c3s2)CC1 [Pictilisib] (partner 1 µM)
Outline: as §1

Halofuginone + Lapatinib = compound: O=C(C[C@H]1NCCC[C@@H]1O)Cn1cnc2cc(Br)c(Cl)cc2c1=O (racemic) [Halofuginone] + CS(=O)(=O)CCNCc1ccc(-c2ccc3ncnc(Nc4ccc(OCc5cccc(F)c5)c(Cl)c4)c3c2)o1 [Lapatinib] (partner 2 µM)
Outline: as §1

Row | Cell Line | relative viability ([1]; first compound 0.001 µM) | relative viability ([1]; first compound 0.003162 µM) | relative viability ([1]; first compound 0.01 µM) | relative viability ([1]; first compound 0.03162 µM) | relative viability ([1]; first compound 0.1 µM) | relative viability ([2]; first compound 0.001 µM) | relative viability ([2]; first compound 0.003162 µM) | relative viability ([2]; first compound 0.01 µM) | relative viability ([2]; first compound 0.03162 µM) | relative viability ([2]; first compound 0.1 µM) | relative viability ([3]; first compound 0.001 µM) | relative viability ([3]; first compound 0.003162 µM) | relative viability ([3]; first compound 0.01 µM) | relative viability ([3]; first compound 0.03162 µM) | relative viability ([3]; first compound 0.1 µM) | relative viability (Halofuginone + Lapatinib; first compound 0.001 µM) | relative viability (Halofuginone + Lapatinib; first compound 0.003162 µM) | relative viability (Halofuginone + Lapatinib; first compound 0.01 µM) | relative viability (Halofuginone + Lapatinib; first compound 0.03162 µM) | relative viability (Halofuginone + Lapatinib; first compound 0.1 µM)
1 | HCC-44 | 1.16 | 0.994 | 1 | 0.824 | 0.17 | 0.23 | 0.222 | 0.196 | 0.178 | 0.13 | 0.545 | 0.605 | 0.592 | 0.67 | 0.399 | 1.02 | 1.01 | 0.955 | 0.997 | 0.808
2 | HARA | 0.116 | 0.118 | 0.105 | 0.105 | 0.0853 | 0.486 | 0.465 | 0.487 | 0.48 | 0.363 | 0.556 | 0.461 | 0.402 | 0.436 | 0.235 | 0.705 | 0.637 | 0.721 | 0.667 | 0.555
3 | 201T | 1 | 0.813 | 0.995 | 0.779 | 0.548 | 0.459 | 0.472 | 0.442 | 0.457 | 0.348 | 0.708 | 0.647 | 0.666 | 0.597 | 0.516 | 1.02 | 0.97 | 1.05 | 1.04 | 1.04
4 | LC-2-ad | 0.476 | 0.508 | 0.422 | 0.351 | 0.225 | 0.694 | 0.581 | 0.536 | 0.677 | 0.466 | 0.66 | 0.551 | 0.492 | 0.455 | 0.269 | 0.98 | 1.02 | 0.93 | 0.874 | 0.726
5 | NCI-H596 | 1.04 | 0.871 | 0.953 | 0.543 | 0.303 | 0.732 | 0.84 | 0.742 | 0.938 | 0.569 | 0.423 | 0.431 | 0.388 | 0.423 | 0.3 | 1.06 | 1.18 | 1.02 | 1.07 | 0.661
6 | NCI-H1792 |  |  |  |  |  | 0.233 | 0.29 | 0.256 | 0.223 | 0.184 | 0.336 | 0.228 | 0.3 | 0.34 | 0.243 | 0.897 | 0.857 | 0.896 | 0.831 | 0.994
7 | Calu-6 |  |  |  |  |  |  |  |  |  |  | 0.968 | 0.873 | 0.849 | 0.327 | 0.11 | 1.18 | 1 | 1.05 | 0.689 | 0.176
8 | LCLC-103H | 0.503 | 0.59 | 0.446 | 0.443 | 0.425 | 0.35 | 0.341 | 0.323 | 0.326 | 0.309 | 0.627 | 0.605 | 0.601 | 0.668 | 0.685 |  |  |  |  | 
9 | NCI-H1623 | 0.487 | 0.44 | 0.459 | 0.459 | 0.426 | 0.624 | 0.548 | 0.59 | 0.576 | 0.432 |  |  |  |  |  |  |  |  |  | 
10 | NCI-H1299 |  |  |  |  |  |  |  |  |  |  | 1.01 | 0.806 | 0.619 | 0.232 | 0.077 | 0.995 | 1 | 0.916 | 0.941 | 0.65
11 | ChaGo-K-1 | 0.256 | 0.205 | 0.261 | 0.222 | 0.208 | 0.473 | 0.486 | 0.573 | 0.392 | 0.462 | 0.587 | 0.397 | 0.683 | 0.669 | 0.776 |  |  |  |  | 
12 | NCI-H1703 |  |  |  |  |  |  |  |  |  |  | 0.252 | 0.264 | 0.247 | 0.214 | 0.193 | 1.15 | 1.28 | 0.95 | 0.792 | 0.427
13 | NCI-H522 | 0.528 | 0.566 | 0.572 | 0.512 | 0.491 | 0.73 | 0.653 | 0.649 | 0.648 | 0.657 |  |  |  |  |  |  |  |  |  | 
14 | IA-LM |  |  |  |  |  |  |  |  |  |  | 0.415 | 0.26 | 0.288 | 0.256 | 0.057 | 0.85 | 0.781 | 0.579 | 0.518 | 0.0907
15 | SW 900 | 0.611 | 0.557 | 0.558 | 0.46 | 0.258 | 0.657 | 0.565 | 0.695 | 0.712 | 0.4 |  |  |  |  |  |  |  |  |  | 
16 | NCI-H1563 |  |  |  |  |  | 0.659 | 0.638 | 0.615 | 0.602 | 0.549 | 0.671 | 0.644 | 0.685 | 0.588 | 0.575 | 0.757 | 0.853 | 0.879 | 0.627 | 0.506
17 | NCI-H441 | 0.737 | 0.792 | 0.568 | 0.57 | 0.256 | 0.976 | 1.05 | 0.87 | 0.839 | 0.564 | 0.482 | 0.466 | 0.489 | 0.415 | 0.385 |  |  |  |  | 
18 | NCI-H2342 | 0.522 | 0.493 | 0.498 | 0.478 | 0.506 | 0.719 | 0.566 | 0.561 | 0.688 | 0.547 |  |  |  |  |  |  |  |  |  | 
